Patent publication US20170305943A1, “COMPOUNDS FOR THE TREATMENT OF BACTERIAL INFECTIONS” (priority 2014, published 2017)
≈ marks a conversion by molar mass, not a printed value.

Test system: Clostridium difficile (Isolate ID ATCC 9689)
Experiment: Bacterial Assay: Determination of Antibacterial Activity (MIC, broth microdilution or agar dilution)
Format: cell-based
Settings: Clostridioides difficile, ATCC9689, 48 h, read-out: C. difficile MIC Activity Range
Method in brief: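 MICs were set by CLSI broth microdilution or agar dilution for anaerobes, read visually after 48 hours at 37° C. under anaerobic gas packs. Medium was reinforced clostridial medium with 0.1% defibrinated horse blood; values are binned as A ≦1.01, B >1.0-4.0, C >4.0-16 μg/mL.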

`NC(=O)c1c(F)ccc(OC(CO)c2nc(-c3ccc(Br)s3)c(Br)o2)c1F` (stereo not shown) [Compound 100, 3-{1-[5-bromo-4-(5-bromothiophen-2-yl)-1,3-oxazol-2-yl]-2-hydroxyethoxy}-2,6-difluorobenzamide] and `NC(=O)c1c(F)ccc(OCCCc2nc3cc(Cl)ccc3s2)c1F` [Compound 109, 3-[3-(5-chloro-1,3-benzothiazol-2-yl)propoxy]-2,6-difluorobenzamide] fall in the same range of MIC: 1 to 4 µg/mL (≈ 1.91 to 7.63 µM) for the first, 1 to 4 µg/mL (≈ 2.61 to 10.4 µM) for the second.

First: CNCNC(=O)c1c(F)ccc(OCc2nc3cc(Cl)cnc3s2)c1F [Compound 103]
Second: NC(=O)c1c(F)ccc(OCCCCOc2ccc(Cl)cn2)c1F [Compound 143, 3-{4-[(5-chloropyridin-2-yl)oxy]butoxy}-2,6-difluorobenzamide]
The MIC of the first is higher: 4 to 16 µg/mL (≈ 10 to 40.1 µM) for the first, under 1.01 µg/mL for the second.

Compared with `CCCCCCCCCOc1ccc(F)c(C(=N)N)c1F` [Compound 107, 2,6-difluoro-3-(nonyloxy)benzenecarboximidamide], `CCCCCCCCCNc1ccc(F)c(C(N)=O)c1F` [Compound 123, 2,6-difluoro-3-(nonylamino)benzamide] is lower in MIC: 4 to 16 µg/mL (≈ 13.4 to 53.6 µM) for the first, 1 to 4 µg/mL (≈ 3.35 to 13.4 µM) for the second.

`NC(=O)c1c(F)ccc(OCCCc2nc(-c3ccc(C(F)(F)F)cc3)cs2)c1F` [Compound 113, 2,6-difluoro-3-(3-{4-[4-(trifluoromethyl)phenyl]-1,3-thiazol-2-yl}propoxy)benzamide] and `NC(=O)c1c(F)ccc(OCCCc2nc(-c3ccc(OC(F)(F)F)cc3)cs2)c1F` [Compound 115, 2,6-difluoro-3-(3-{4-[4-(trifluoromethoxy)phenyl]-1,3-thiazol-2-yl}propoxy)benzamide] fall in the same range of MIC: 1 to 4 µg/mL (≈ 2.26 to 9.04 µM) for the first, 1 to 4 µg/mL (≈ 2.18 to 8.73 µM) for the second.

`NC(=O)c1c(F)ccc(OCCCc2nc(-c3ccc(OC(F)F)cc3)cs2)c1F` [Compound 114, 3-(3-{4-[4-(difluoromethoxy)phenyl]-1,3-thiazol-2-yl}propoxy)-2,6-difluorobenzamide] and `NC(=O)c1c(F)ccc(OCCCc2nc(-c3ccc(S(F)(F)(F)(F)F)cc3)cs2)c1F` [Compound 116, 2,6-difluoro-3-(3-{4-[4-(pentafluoro-lambda~6~- sulfanyl)phenyl]-1,3-thiazol-2-yl}propoxy)benzamide] fall in the same range of MIC: 1 to 4 µg/mL (≈ 2.27 to 9.08 µM) for the first, 1 to 4 µg/mL (≈ 2 to 7.99 µM) for the second.

`NC(=O)c1c(F)ccc(OCCc2nc(-c3ccc(OC(F)(F)F)cc3)no2)c1F` [Compound 117, 2,6-difluoro-3-(2-{3-[4-(trifluoromethoxy)phenyl]-1,2,4-oxadiazol-5-yl}ethoxy)benzamide] and `NC(=O)c1c(F)ccc(OCCc2nc(-c3ccc(S(F)(F)(F)(F)F)cc3)no2)c1F` [Compound 118, 2,6-difluoro-3-(2-{3-[4-(pentafluoro-lambda~6~- sulfanyl)phenyl]-1,2,4-oxadiazol-5-yl}ethoxy)benzamide] cannot be ordered by MIC: under 1.01 µg/mL for the first, under 1.01 µg/mL for the second.

`N/C(=N\O)c1c(F)ccc(OCc2nc(-c3ccc(OC(F)(F)F)cc3)ns2)c1F` [Compound 119, 2,6-difluoro-N′-hydroxy-3-({3-[4-(trifluoromethoxy)phenyl]-1,2,4-thiadiazol-5-yl}methoxy)benzenecarboximidamide] and `NC(=O)c1c(F)ccc(OCCCCNc2ccc(OC(F)(F)F)cc2)c1F` [Compound 148, 2,6-difluoro-3-(4-{[4-(trifluoromethoxy)phenyl]amino}butoxy) benzamide] cannot be ordered by MIC: 1 to 4 µg/mL (≈ 2.24 to 8.96 µM) for the first, under 1.01 µg/mL for the second.

Compared with `NC(=O)c1c(F)ccc(OCc2nc(-c3ccc(S(F)(F)(F)(F)F)cc3)no2)c1F` [Compound 120, 2,6-difluoro-3-({3-[4-(pentafluoro-lambda~6~- sulfanyl)phenyl]-1,2,4-oxadiazol-5-yl}methoxy)benzamide], `NC(=O)c1c(F)ccc(OCc2nc(-c3ccc(S(F)(F)(F)(F)F)cc3)co2)c1F` [Compound 121, 2,6-difluoro-3-({4-[4-(pentafluoro-lambda~6~- sulfanyl)phenyl]-1,3-oxazol-2-yl}methoxy)benzamide] is lower in MIC: 4 to 16 µg/mL (≈ 8.75 to 35 µM) for the first, 1 to 4 µg/mL (≈ 2.19 to 8.77 µM) for the second.

`NC(=O)c1c(F)ccc(NCc2nc(-c3ccc(C(F)(F)F)cc3)cs2)c1F` [Compound 122, 2,6-difluoro-3-[({4-[4-(trifluoromethyl)phenyl]-1,3-thiazol-2-yl}methyl)amino]benzamide] and `NC(=O)c1c(F)ccc(OCCCCNc2ccc(C(F)(F)F)cc2)c1F` [Compound 147, 2,6-difluoro-3-(4-{[4-(trifluoromethyl)phenyl]amino}butoxy) benzamide] cannot be ordered by MIC: under 1.01 µg/mL for the first, 1 to 4 µg/mL (≈ 2.58 to 10.3 µM) for the second.

`NC(=O)c1c(F)ccc(OCCCOc2ccc(Cl)cc2)c1F` [Compound 124, 3-[3-(4-chlorophenoxy)propoxy]-2,6-difluorobenzamide] and `NC(=O)c1c(F)ccc(OCCCCOc2ccc(F)cc2)c1F` [Compound 168, 2,6-difluoro-3-[4-(4-fluorophenoxy)butoxy] benzamide] fall in the same range of MIC: 1 to 4 µg/mL (≈ 2.93 to 11.7 µM) for the first, 1 to 4 µg/mL (≈ 2.95 to 11.8 µM) for the second.

`NC(=O)c1c(F)ccc(OCCCOc2ccc(C(F)(F)F)cc2)c1F` [Compound 125, 2,6-difluoro-3-{3-[4-(trifluoromethyl)phenoxy]propoxy}benzamide] and `NC(=O)c1c(F)ccc(OCCOCCOc2ccc(C(F)(F)F)cc2)c1F` [Compound 146, 2,6-difluoro-3-(2-{2-[4-(trifluoromethyl)phenoxy]ethoxy}ethoxy) benzamide] cannot be ordered by MIC: 1 to 4 µg/mL (≈ 2.66 to 10.7 µM) for the first, under 1.01 µg/mL for the second.

First: NC(=O)c1c(F)ccc(OCCCCOc2ccc(Cl)cc2Cl)c1F [Compound 137, 3-[4-(2,4-dichlorophenoxy)butoxy]-2,6-difluorobenzamide]
Second: NC(=O)c1c(F)ccc(OCCCCOc2ccccc2Cl)c1F [Compound 139, 3-[4-(2-chlorophenoxy)butoxy]-2,6-difluorobenzamide]
The MIC of the first is lower: under 1.01 µg/mL for the first, 4 to 16 µg/mL (≈ 11.2 to 45 µM) for the second.

`CCOC(=O)c1ccc(OCCCCOc2ccc(F)c(C(N)=O)c2F)cc1` [Compound 138, ethyl 4-[4-(3-carbamoyl-2,4-difluorophenoxy)butoxy]benzoate] and `COc1ccc(OCCCCOc2ccc(F)c(C(N)=O)c2F)cc1` [Compound 154, 2,6-difluoro-3-[4-(4-methoxyphenoxy)butoxy]benzamide] cannot be ordered by MIC: under 1.01 µg/mL for the first, 1 to 4 µg/mL (≈ 2.85 to 11.4 µM) for the second.

`NC(=O)c1c(F)ccc(OCCCCOc2cccc(Cl)c2)c1F` [Compound 140, 3-[4-(3-chlorophenoxy)butoxy]-2,6-difluorobenzamide] and `NC(=O)c1c(F)ccc(OCCCCOc2cccc(F)c2)c1F` [Compound 167, 2,6-difluoro-3-[4-(3-fluorophenoxy)butoxy] benzamide] fall in the same range of MIC: 1 to 4 µg/mL (≈ 2.81 to 11.2 µM) for the first, 1 to 4 µg/mL (≈ 2.95 to 11.8 µM) for the second.

`NC(=O)c1c(F)ccc(OCCCCOc2ccc(C(F)(F)F)cn2)c1F` [Compound 141, 2,6-difluoro-3-(4-{[5-(trifluoromethyl)pyridin-2-yl]oxy}butoxy)benzamide] and `NC(=O)c1c(F)ccc(OCCOCCOc2ccc(C(F)(F)F)cn2)c1F` [Compound 156, 2,6-difluoro-3-[2-(2-{[5-(trifluoromethyl)pyridin-2-yl]oxy}ethoxy)ethoxy]benzamide] cannot be ordered by MIC: under 1.01 µg/mL for the first, 1 to 4 µg/mL (≈ 2.46 to 9.84 µM) for the second.

`NC(=O)c1c(F)ccc(OCCCCNc2ccc(Cl)cc2)c1F` [Compound 142, 3-{4-[(4-chlorophenyl)amino]butoxy}-2,6-difluorobenzamide] and `NC(=O)c1c(F)ccc(OCCCCSc2ccc(Cl)cc2)c1F` [Compound 153, 3-{4-[(4-chlorophenyl)thio]butoxy}-2,6-difluorobenzamide] cannot be ordered by MIC: 1 to 4 µg/mL (≈ 2.82 to 11.3 µM) for the first, under 1.01 µg/mL for the second.

Compared with `NC(=O)c1c(F)ccc(OCCCCOc2ccc(C(F)(F)F)nc2)c1F` [Compound 144, 2,6-difluoro-3-(4-{[6-(trifluoromethyl)pyridin-3-yl]oxy}butoxy)benzamide], `NC(=O)c1c(F)ccc(OCCCCOc2ccc(C(F)(F)F)nn2)c1F` [Compound 158, 2,6-difluoro-3-(4-{[6-(trifluoromethyl)pyridazin-3-yl]oxy}butoxy)benzamide] is higher in MIC: 1 to 4 µg/mL (≈ 2.56 to 10.2 µM) for the first, 4 to 16 µg/mL (≈ 10.2 to 40.9 µM) for the second.

`NC(=O)c1c(F)ccc(OCCOCCOc2ccc(OC(F)(F)F)cc2)c1F` [Compound 145, 2,6-difluoro-3-(2-{2-[4-(trifluoromethoxy)phenoxy]ethoxy}ethoxy) benzamide] and `NC(=O)c1c(F)ccc(NCCCCOc2ccc(OC(F)(F)F)cc2)c1F` [Compound 150, 2,6-difluoro-3-({4-[4-(trifluoromethoxy)phenoxy]butyl}amino) benzamide] cannot be ordered by MIC: under 1.01 µg/mL for the first, 1 to 4 µg/mL (≈ 2.47 to 9.89 µM) for the second.

`NC(=O)c1c(F)ccc(OCCCCOc2ccc(OC(F)F)cc2)c1F` [Compound 149] and `NC(=O)c1c(F)ccc(OCCCCOc2ccc(F)c(F)c2)c1F` [Compound 170, 3-[4-(3,4-difluorophenoxy)butoxy]-2,6-difluorobenzamide] cannot be ordered by MIC: under 1.01 µg/mL for the first, 1 to 4 µg/mL (≈ 2.8 to 11.2 µM) for the second.

`NC(=O)c1c(F)ccc(OCCCCOc2ccccc2)c1F` [Compound 151, 2,6-difluoro-3-(4-phenoxybutoxy)benzamide] and `NC(=O)c1c(F)ccc(OCCCCOc2cccc(C(F)(F)F)c2)c1F` [Compound 165, 2,6-difluoro-3-{4-[3-(trifluoromethyl)phenoxy]butoxy}benzamide] fall in the same range of MIC: 1 to 4 µg/mL (≈ 3.11 to 12.4 µM) for the first, 1 to 4 µg/mL (≈ 2.57 to 10.3 µM) for the second.

`NC(=O)c1c(F)ccc(SCCCCOc2ccc(OC(F)(F)F)cc2)c1F` [Compound 157, 2,6-difluoro-3-({4-[4-(trifluoromethoxy)phenoxy]butyl}thio)benzamide] and `NC(=O)c1c(F)ccc(OCCCCOc2cccc(OC(F)(F)F)c2)c1F` [Compound 166, 2,6-difluoro-3-{4-[3-(trifluoromethoxy)phenoxy]butoxy} benzamide] cannot be ordered by MIC: 1 to 4 µg/mL (≈ 2.37 to 9.49 µM) for the first, under 1.01 µg/mL for the second.

`NC(=O)c1c(F)ccc(OCCCCOc2ccc(F)cc2F)c1F` [Compound 162, 3-[4-(2,4-difluorophenoxy)butoxy]-2,6-difluorobenzamide] and `NC(=O)c1c(F)ccc(OCCCCOc2ccc(OC(F)(F)F)c(Br)c2)c1F` [Compound 163, 3-{4-[3-bromo-4-(trifluoromethoxy)phenoxy]butoxy}-2,6-difluorobenzamide] cannot be ordered by MIC: 1 to 4 µg/mL (≈ 2.8 to 11.2 µM) for the first, under 1.01 µg/mL for the second.

`NC(=O)c1c(F)ccc(OCCCCOc2ccc(OC(F)(F)F)c(Cl)c2)c1F` [Compound 164, 3-{4-[3-chloro-4-(trifluoromethoxy)phenoxy]butoxy}-2,6-difluorobenzamide] and `NC(=O)c1c(F)ccc(OCCCCOc2ccc(Cl)c(C(F)(F)F)c2)c1F` [Compound 169, 3-{4-[4-chloro-3-(trifluoromethyl)phenoxy]butoxy}-2,6-difluorobenzamide] cannot be ordered by MIC: under 1.01 µg/mL for the first, under 1.01 µg/mL for the second.
